From patent US12642805B2, “Use of oxygenated cholesterol sulfates for treating at least one of insulin resistance, diabetes, and prediabetes” (Medicis Pharmaceutical Corporation, priority 2020, dated 2026) come the findings set out here.

The Cmax is the maximum level reached in the sampled fluid or tissue. A word on the Tmax: it is the time at which the peak concentration occurs.

A short description of series [1]: metabolite profiling of plasma, urine, feces after intravenous dose. The note with it: rats 10 mg/kg intravenous 25HC3S.
Experimental: (§1) Samples were profiled using high performance liquid chromatography with radiodetection and metabolic characterization was performed using mass spectrometry and tandem mass spectrometry analysis.
The conditions of series [2]: Sprague Dawley, rat, in vivo, iv, 10 mg/kg.
Experimental: as §1
A short description of series [3]: metabolite profiling of plasma and feces after oral dose. The class given is in vivo, rat. The note with it: rats 75 mg/kg oral. The text has this:
Radiolabeled components in plasma and feces extracts were profiled and identified using radio-high performance liquid chromatography (HPLC) and high performance liquid chromatography/mass spectrometry (HPLC/MS) methods.

Series [4] deals with DNMT1/3a/3b and 9 other epigenetic enzymes. The experiment in a line: epigenetic enzyme activity panel. The class given is biochemical. From the text:
The major epigenetic regulation includes DNA and histone methylation, demethylation, acetylation, and deacetylation. The enzymes involved in the process are DNA and histone methyltransferases/demethylases, and acetyltransferases/deacetylases.

The nature of series [5]: single oral dose pharmacokinetic study in healthy and NASH subjects. The class given is in vivo, human. The note with it: for AUC(0-t) / AUC(0-inf) / Cmax / half-life / Tmax / Vd/F: human, plasma, po. How it is done: The present Example was a randomized, dose ranging, single dose safety and pharmacokinetic study of 25HC3S administered to subjects with NASH and control healthy subjects. […] For each cohort, 10 subjects with NASH were enrolled which were further classified into cirrhotic and non-cirrhotic. Each subject received only one dose of study treatment. The second cohort was dosed after a review of safety and tolerability data from Cohort 1.

Where [6] appears, read: 50 mg single oral dose, Healthy.
Where [7] appears, read: 200 mg single oral dose, Healthy.

Like-named read-outs stand apart in the source and are kept apart here.

On to desmosterol sulfate, for which the “detection in plasma, urine, or feces samples” value in series [1] was “Neither desmosterol sulfate nor 25-hydroxycholesterol was detected”.

As to `C[C@H](CCCC(C)(C)O)[C@H]1CC[C@H]2[C@@H]3CC=C4C[C@@H](O)CC[C@]4(C)[C@H]3CC[C@]12C` [25HC, 25-Hydroxycholesterol, reference compound], the “detection in plasma, urine, or feces samples” value in series [2] is “Neither desmosterol sulfate nor 25-hydroxycholesterol was detected”. Also, the “relative observed intensity (ROI) in plasma” value in series [3] (2 hour post-dose) came to 37%. Moreover, the “% of total dose in feces” value in series [3] (pools 0 to 168 hours) is 1.9%.

As to `C[C@@H](CO)CCC[C@@H](C)[C@H]1CC[C@H]2[C@@H]3CC=C4C[C@@H](O)CC[C@]4(C)[C@H]3CC[C@]12C` [27HC, 27-Hydroxycholesterol], the “effect on enzymatic activities” value in series [4] is reported as “no effect on other enzymes”.

As to `C[C@H](CCCC(C)(C)O)[C@H]1CC[C@H]2[C@@H]3CC=C4C[C@@H](OS(=O)(=O)[O-])CC[C@]4(C)[C@H]3CC[C@]12C.[Na+]` [25HC3S sodium, 25-hydroxycholesterol-3-sulfate sodium], the “CL/F, Geometric Mean” value is recorded as 118.11 L/h in series [5] (setting [6]); 82.19 L/h in series [5] (50 mg single oral dose, NASH); 169.32 L/h in series [5] (setting [7]); 141.66 L/h in series [5] (200 mg single oral dose, NASH). Also, the “CL/F, Mean” value was found to be 122.35 L/h in series [5] (setting [6]); 85.29 L/h in series [5] (50 mg single oral dose, NASH); 171.25 L/h in series [5] (setting [7]); 143.19 L/h in series [5] (200 mg single oral dose, NASH). Moreover, the AUC(0-t) in series [5] (50 mg, 50 mg single oral dose, Healthy, read-out: AUC0-12, Geometric Mean) was determined as 497 ng·h/mL; in series [5] (50 mg, 50 mg single oral dose, Healthy, read-out: AUC0-12, Mean) it was 528 ng·h/mL; in series [5] (50 mg, 50 mg single oral dose, Healthy, read-out: AUC0-last, Geometric Mean), 450 ng·h/mL; in series [5] (50 mg, 50 mg single oral dose, Healthy, read-out: AUC0-last, Mean) it was 477 ng·h/mL; in series [5] (50 mg, 50 mg single oral dose, NASH, read-out: AUC0-12, Geometric Mean), 598 ng·h/mL; in series [5] (50 mg, 50 mg single oral dose, NASH, read-out: AUC0-12, Mean), 623 ng·h/mL. Further, the AUC(0-t) in series [5] (50 mg, 50 mg single oral dose, NASH, read-out: AUC0-last, Geometric Mean) was determined as 476 ng·h/mL; in series [5] (50 mg, 50 mg single oral dose, NASH, read-out: AUC0-last, Mean) it was 513 ng·h/mL; in series [5] (200 mg, 200 mg single oral dose, Healthy, read-out: AUC0-12, Geometric Mean) it was 1160 ng·h/mL; in series [5] (200 mg, 200 mg single oral dose, Healthy, read-out: AUC0-12, Mean) it was 1180 ng·h/mL; in series [5] (200 mg, 200 mg single oral dose, Healthy, read-out: AUC0-last, Geometric Mean), 1170 ng·h/mL; in series [5] (200 mg, 200 mg single oral dose, Healthy, read-out: AUC0-last, Mean), 1190 ng·h/mL. For the same molecule, the AUC(0-t) in series [5] (200 mg, 200 mg single oral dose, NASH, read-out: AUC0-12, Geometric Mean) came to 1500 ng·h/mL; in series [5] (200 mg, 200 mg single oral dose, NASH, read-out: AUC0-12, Mean) it was 1540 ng·h/mL; in series [5] (200 mg, 200 mg single oral dose, NASH, read-out: AUC0-last, Geometric Mean), 1540 ng·h/mL; in series [5] (200 mg, 200 mg single oral dose, NASH, read-out: AUC0-last, Mean), 1580 ng·h/mL. The AUC(0-inf) in series [5] (50 mg, 50 mg single oral dose, Healthy, read-out: AUCinf, Geometric Mean) is 423 ng·h/mL; in series [5] (50 mg, 50 mg single oral dose, Healthy, read-out: AUCinf, Mean), 439 ng·h/mL; in series [5] (50 mg, 50 mg single oral dose, NASH, read-out: AUCinf, Geometric Mean), 608 ng·h/mL; in series [5] (50 mg, 50 mg single oral dose, NASH, read-out: AUCinf, Mean), 636 ng·h/mL; in series [5] (200 mg, 200 mg single oral dose, Healthy, read-out: AUCinf, Geometric Mean), 1180 ng·h/mL; in series [5] (200 mg, 200 mg single oral dose, Healthy, read-out: AUCinf, Mean), 1190 ng·h/mL. In addition, the AUC(0-inf) came out at 1410 ng·h/mL in series [5] (200 mg, 200 mg single oral dose, NASH, read-out: AUCinf, Geometric Mean) and 1430 ng·h/mL in series [5] (200 mg, 200 mg single oral dose, NASH, read-out: AUCinf, Mean). In addition, the Cmax worked out at 90.9 ng/mL in series [5] (50 mg, 50 mg single oral dose, Healthy, read-out: Cmax, Geometric Mean); 94 ng/mL in series [5] (50 mg, 50 mg single oral dose, Healthy, read-out: Cmax, Mean); 108 ng/mL in series [5] (50 mg, 50 mg single oral dose, NASH, read-out: Cmax, Geometric Mean); 113 ng/mL in series [5] (50 mg, 50 mg single oral dose, NASH, read-out: Cmax, Mean); 256 ng/mL in series [5] (200 mg, 200 mg single oral dose, Healthy, read-out: Cmax, Geometric Mean); 260 ng/mL in series [5] (200 mg, 200 mg single oral dose, Healthy, read-out: Cmax, Mean). The Cmax turned out to be 319 ng/mL in series [5] (200 mg, 200 mg single oral dose, NASH, read-out: Cmax, Geometric Mean) and 333 ng/mL in series [5] (200 mg, 200 mg single oral dose, NASH, read-out: Cmax, Mean). Also, the half-life in series [5] (50 mg, 50 mg single oral dose, Healthy, read-out: T1/2, Geometric Mean (converted)) was 1.89 h; in series [5] (50 mg, 50 mg single oral dose, Healthy, read-out: T1/2, Mean (converted)) it was 1.91 h; in series [5] (50 mg, 50 mg single oral dose, NASH, read-out: T1/2, Geometric Mean (converted)), 1.67 h; in series [5] (50 mg, 50 mg single oral dose, NASH, read-out: T1/2, Mean (converted)), 1.67 h; in series [5] (200 mg, 200 mg single oral dose, Healthy, read-out: T1/2, Geometric Mean (converted)), 1.72 h; in series [5] (200 mg, 200 mg single oral dose, Healthy, read-out: T1/2, Mean (converted)), 1.75 h. The half-life in series [5] (200 mg, 200 mg single oral dose, NASH, read-out: T1/2, Geometric Mean (converted)) was 2.2 h; in series [5] (200 mg, 200 mg single oral dose, NASH, read-out: T1/2, Mean (converted)) it was 2.51 h. Besides, the Tmax in series [5] (50 mg, 50 mg single oral dose, Healthy, read-out: Tmax, Geometric Mean) amounted to 2.83 h; in series [5] (50 mg, 50 mg single oral dose, Healthy, read-out: Tmax, Mean), 3.01 h; in series [5] (50 mg, 50 mg single oral dose, NASH, read-out: Tmax, Geometric Mean), 2.31 h; in series [5] (50 mg, 50 mg single oral dose, NASH, read-out: Tmax, Mean), 2.41 h; in series [5] (200 mg, 200 mg single oral dose, Healthy, read-out: Tmax, Geometric Mean), 2.53 h; in series [5] (200 mg, 200 mg single oral dose, Healthy, read-out: Tmax, Mean), 2.67 h. The Tmax in series [5] (200 mg, 200 mg single oral dose, NASH, read-out: Tmax, Geometric Mean) was determined as 2.65 h; in series [5] (200 mg, 200 mg single oral dose, NASH, read-out: Tmax, Mean) it was 2.91 h. Moreover, the Vd/F was 322 L in series [5] (50 mg, 50 mg single oral dose, Healthy, read-out: Vz/F, Geometric Mean); 325 L in series [5] (50 mg, 50 mg single oral dose, Healthy, read-out: Vz/F, Mean); 198 L in series [5] (50 mg, 50 mg single oral dose, NASH, read-out: Vz/F, Geometric Mean); 203 L in series [5] (50 mg, 50 mg single oral dose, NASH, read-out: Vz/F, Mean); 420 L in series [5] (200 mg, 200 mg single oral dose, Healthy, read-out: Vz/F, Geometric Mean); 434 L in series [5] (200 mg, 200 mg single oral dose, Healthy, read-out: Vz/F, Mean). The Vd/F in series [5] (200 mg, 200 mg single oral dose, NASH, read-out: Vz/F, Geometric Mean) turned out to be 449 L; in series [5] (200 mg, 200 mg single oral dose, NASH, read-out: Vz/F, Mean), 540 L.

In the case of `CC(C)CCC[C@@H](C)[C@H]1CC[C@H]2[C@@H]3CC=C4C[C@@H](OS(=O)(=O)O)CC[C@]4(C)[C@H]3CC[C@]12C` [Xol3S, Cholesterol 3-Sulfate], the “effect on enzymatic activities” value in series [4] was “did not significantly affect enzymatic activities”.

Turning to `CC(C)CCC[C@@H](C)[C@H]1CC[C@H]2[C@@H]3CC=C4C[C@@H](O)CC[C@]4(C)[C@H]3CC[C@]12C` [Xol, Cholesterol], the “effect on enzymatic activities” value in series [4] was “did not significantly affect enzymatic activities”.
